Data set [1] in a line: Dilution test of iron compositions in sterile PBS and cell culture medium (dissolution properties). Type of data set: physicochemical. The following applies: for appearance after initial ten-fold dilution: 3 mg/ml of iron, PBS and medium; for appearance after further ten-fold dilution: 300 micrograms/ml of iron. Here is the method: (§1) The iron content of the compounds (with the exception of the vitamin D and the sucrosomial matrix) was 30 mg/ml. A 1:100 dilution was performed for all of the compounds in sterile PBS in order to obtain an iron concentration of 300 micrograms/ml. […] The final iron concentration used in the experiments has been described elsewhere (Barisani et al. “Iron overload and gene expression in HepG2 cells: analysis by differential display” FEBS Letters 2000, 469, 208-212). The compounds (initial dilution of […]) were diluted in an incomplete FBS-free medium (RPMI 1640 for the U937 cells, EMEM for the HepG2 cells) with a dilution factor of 1:6 for a final iron concentration of 50 micrograms/ml. A test was conducted to assess the effect of the compounds on the cell cultures: induced FlepG2 and U937 were seeded a with a cell density of 650,000 cells/ml in 6 wells (final volume 1.5 ml/well). After 24 hours the medium was replaced with a new FBS-free (incomplete) one containing 50 µg/ml of iron and after 24 hours the cells were macroscopically checked (visual inspection using a microscope).
Before the cells were treated with the selected compounds, they were tested to assess their dissolution properties. The compounds were diluted in sterile PBS and in the standard cell culture medium (EMEM).

Another data set relates to U937 cells. The following applies: 50 micrograms/ml of iron, 24 hours. The protocol:
as §1

The next data set concerns hepcidin. Nature of the data set: Hepcidin produced by LPS-stimulated HepG2 cells in supernatant (ELISA). The following applies: LPS-stimulated HepG2, 18 hours of treatment; combination compared to vitamin D alone or sucrosomial iron alone (FIG. 2). Type of data set: cell-based, human. Here is the method:
The HepG2 cells were seeded in 6 wells at a concentration of 650,000 cells/ml (1.5 ml/well). The plates were incubated for 24 hours at 37° C. and 5% CO2 first. Afterwards, the 24-hour medium was replaced with an incomplete EMEM without FEM, containing 40 ng/ml of LPS. A control well was prepared with an LPS-FBS-free incomplete medium. After 20 hours of incubation at 37° C. and 5% CO2, the medium was replaced with the iron treatment solutions (medium containing 50 µg/ml of iron). In the control well, the medium was replaced by an incomplete FBS-free EMEM medium. Another control well without iron was prepared, replacing a container containing LPS with a fresh incomplete FBS-free medium. After 6, 18 and 24 ore, the hours, the supernatants were collected from the wells, centrifugated for 10 minutes at 1000 g, transferred into a new tube and stored a −20° C. for the analysis of hepcidin and CRP. The cells of each well collected were detached using trypsin and counted using Trypan blue with a Bürker counting chamber.
A general note: An ELISA detects its analyte on a solid surface through an enzyme-linked reagent.

With `O=S(=O)([O-])[O-].[Fe+2]` [iron sulphate], in data set [1], the “appearance after initial ten-fold dilution” value is reported as “changed the colour (pH) of the medium from red to yellow” and the “appearance after further ten-fold dilution” value is on record as “moderate colour change”. Also, the “appearance of the compounds before dilution in PBS / EMEM” value in data set [1] (compounds as supplied (30 mg/ml iron)) is listed as “separated in two phases”. The “effect on the cytoplasmic volume of the cells” value in the data set on U937 cells was “loss of volume”.
In the case of vitamin D, in the data set on hepcidin, the “hepcidin level/expression in supernatants of HepG2 cells” value is reported as “higher”. For the same compound, in data set [1], the “appearance after initial ten-fold dilution” value is listed as “no problems”.
As to `O=P([O-])([O-])OP(=O)([O-])[O-].O=P([O-])([O-])OP(=O)([O-])[O-].O=P([O-])([O-])OP(=O)([O-])[O-].[Fe+3].[Fe+3].[Fe+3].[Fe+3]` [iron pyrophosphate], in data set [1], the “appearance after initial ten-fold dilution” value is reported as “changed the colour (pH) of the medium from red to yellow” and the “appearance after further ten-fold dilution” value is reported as “no evident colour change”.

Values taken from patent publication US12246036B2, “Composition for use in the prevention and in the treatment of iron deficiency” (PHARMANUTRA S.P.A., priority 2017, dated 2025).
